Results on 1 compound are retold here after patent US20220153780A1, “SALT FORMS OF S-(N, N-DIETHYLCARBAMOYL)GLUTATHIONE” (Tonix Pharma Holdings Limited, priority 2019, published 2022).

The structures appear in SMILES notation. In brackets after ≈: the same amount, converted by molar mass. Like-named read-outs stand apart in the source and are kept apart here.

One data set relates to C57BL/6J mice. The data set is described as follows: Voluntary ethanol intake in chronic intermittent ethanol (CIE) exposed and air-exposed (CTL) mice, limited access drinking. To be noted: for weekly average ethanol intake vs vehicle: nondependent (CTL) mice; for ethanol intake as percent change from vehicle group: Test cycles 5 and 7. Type of data set: in vivo. Here is the method:
Following the established protocol, adult male C57BL/6J mice (N=96) were trained to drink ethanol in a limited access (2 hour/day) free-choice (15% v/v ethanol vs. water) drinking procedure. After four weeks, stable baseline level of intake was established, and mice were separated into two groups. One group of mice (CIE group) was exposed to chronic intermittent ethanol (CIE) vapor exposure in inhalation chambers (16 hour/days x 4 days). The remaining mice (CTL group) were treated similarly but exposed to air in inhalation chambers. After a 72 hour forced abstinence period, all mice resumed ethanol drinking in the same limited access paradigm for a 5-day test period. This pattern of weekly CIE (or air) exposure cycles with intervening weekly test drinking cycles was repeated for seven cycles following procedures previously published (Becker and Lopez, 2004; Griffin et al., 2009; Lopez and Becker, 2005).
All mice received intraperitoneal (IP) administration of saline 30 min prior to the start of daily drinking sessions during baseline and the early test cycles to acclimate the animals to the handling procedure. After the fourth ethanol intake test cycle, mice were further divided into carbamathione dose treatment conditions (N=10-12/group).
After Test 4, CIE and CTL mice were separated in dose groups for Test 5 (N=11-12/group), with the groups equated for intake during Test 4. Mice received intraperitoneal (IP) injections of carbamathione (100, 200 or 400 mg/kg) or vehicle (0.25% carboxymethyl cellulose, CMC in water) 30 min before drinking. The carbamathione IP injections were administered as a suspension. Ethanol intake during Test 5 was averaged for the week and analyzed by ANOVA, with Group (CTL, CIE) and carbamathione dose (0, 100, 200, 400 mg/kg) as between-subject factors. ANOVA indicated a significant main effect of Group [F(1,78)=53.33; p<0.0001], reflecting a higher level of ethanol intake in CIE mice compared to CTL mice (* in FIG. 4).
The efficacy of carbamathione in reducing ethanol intake in mice was next compared to the efficacy of disulfiram, an FDA approved drug used in the treatment of chronic alcoholism. The mice were exposed to a sixth cycle of CIE (or air) and evaluated for intake with the same procedure used in the previous test cycle, except that disulfiram was included as a comparator drug. Mice that received vehicle or 400 mg/kg carbamathione continued with this treatment schedule. Mice that received 100 or 200 mg/kg carbamathione were combined and randomly redistributed to receive 75 or 100 mg/kg disulfiram during the first two days and these doses were increased to 125 and 150 mg/kg disulfiram, respectively for the last three days of Test 6. Disulfiram doses were prepared with the same vehicle used for carbamathione (i.e., 0.25% CMC). Separate analyses were conducted to evaluate the effect of carbamathione and disulfiram treatment. Data presented in FIG. 5 show the weekly average intake for CIE and CTL mice that received vehicle or carbamathione. […] Data for mice that received vehicle, 75, or 100 mg/kg of disulfiram were averaged over the first two days of the week. […]
Mice were evaluated again for voluntary ethanol intake after a seventh and final CIE or air exposure cycle. During the five days of Test 7, mice that received vehicle injections from the start of the study continued to receive vehicle injections. Mice that received carbamathione and disulfiram in Test cycles 5 and 6 received vehicle injections in Test 7 to evaluate any long-lasting effect of previous treatment (drug washout evaluation). Finally, mice that received 400 mg/kg carbamathione continued treatment with a higher dose of carbamathione (600 mg/kg). Analysis of the groups that received vehicle injections during Test 7 was performed with Group (CIE, CTL) and previous treatment (vehicle, low, or high disulfiram dose) as main factors. This analysis indicated a significant main effect of Group [F(1,59)=25.36; p<0.0001]. […] (data not shown). […]

In data set [1] the test system is alcohol-preferring rats (P rats). The data set is described as follows: 2-hour ethanol intake by adult male P rats after IP carbamathione. The format is in vivo. Here is the method: The efficacy of carbamathione in reducing ethanol intake of rats was assessed. Adult male alcohol-preferring rats (P rats) and high alcohol-drinking-1 (HAD1) rats (˜75 days of age at the start) were used in this study. These rats underwent an 8-week acquisition/acclimation period of concurrent free-choice access to 15% and 30% ethanol. Animals were initiated with 24-hour access, which was titrated down to 2 hours per day for 5 days (Monday-Friday)/week access. Ethanol access began at the beginning of the dark cycle (10:00 h) in a room maintained on a reverse dark-light cycle (10:00 h to 22:00 h lights out).
After the acquisition period, the animals underwent three weeks of testing. Four doses were tested: 0, 100, 200, and 400 mg/kg/day. Sterile isotonic (0.9% normal) saline with 0.25% Tween® 80 was used as the vehicle for all doses. Injection solutions were prepared approximately 1 hour prior to each administration.
The carbamathione solution was maintained at −20° C. until mixing the solutions each day. Adding the carboxyl-associated compound helped dissolve the carbamathione solid, which was pulverized by mortar and pestle with 50 μl Tween® 80, resulting in a pH of 3.5. […] Doses were calculated at 3 ml/kg to allow for injection volume of 1.5 ml per 500 g rat. […]
Data were analyzed by Dose, by Test Day, and 2-way mixed ANOVAs on each rat line, followed by Dunnett t-test planned comparisons.

A short description of data set [2]: Solubility of free carbamathione in buffer by portion-wise addition of solid. Type of data set: physicochemical. The note with it: thermodynamic from solid, read-out: Solubility TNX1001. Here is the method: The solubility of free carbamathione was determined to be between 20 and 30 mg/mL, as 100 mg of free carbamathione dissolved completely in 5 mL of buffer, but a saturated solution was formed when a subsequent 50 mg aliquot of solid was added to the solution.
The solubility of free carbamathione was determined to be between 10 and 20 mg/mL, as 50 mg of free carbamathione dissolved completely in 5 mL of buffer, but a saturated solution was formed when a subsequent 50 mg aliquot of solid was added to the solution.

For the next data set, the system named is ALDH2. To be noted: Faiman et al., 2013; cited from earlier work.

As for `CCN(CC)C(=O)SCC(NC(=O)CCC(N)C(=O)O)C(=O)NCC(=O)O` (centres unmarked) [carbamathione, S—(N,N-diethylcarbamoyl)glutathione], the “reduction in ethanol intake, CTL mice compared to CIE-exposed mice” value in the data set with C57BL/6J mice (200, 400 and 600 mg/kg, percent change from vehicle) is recorded as “significantly larger reduction in ethanol intake”. For the same compound, the “weekly average ethanol intake vs vehicle and 100 mg/kg” value with C57BL/6J mice (Test 5, 400 mg/kg IP in 0.25% CMC, 30 min before drinking, CIE and CTL mice together) is reported as “significantly lower ethanol intake”. The “weekly average ethanol intake vs vehicle” value with C57BL/6J mice (Test 5, 200 mg/kg IP) is “significantly reduced ethanol intake”; in the data set on C57BL/6J mice (Test 5, 400 mg/kg IP) it was “significantly reduced ethanol intake”. The “weekly average ethanol intake vs vehicle, pair-wise comparison” value with C57BL/6J mice (Test 6, 400 mg/kg IP, p=0.07) was “trend for lower ethanol intake”. Further, the “ethanol intake vs vehicle” value in the data set on C57BL/6J mice (Test 7, 600 mg/kg IP, CIE and CTL groups, 600 mg/kg) is on record as “significantly reduce ethanol intake”. Moreover, the “ethanol intake as percent change from vehicle group” value with C57BL/6J mice (CIE mice, 600 mg/kg (only the highest dose)) is listed as “significant decrease in ethanol intake”; with C57BL/6J mice (CTL mice, 200, 400 and 600 mg/kg), “significant reduction in voluntary ethanol intake”. Further, the “effect on 2-hour ethanol intake” value in data set [1] (IP 100, 200, 400 mg/kg, saline with 0.25% Tween 80 vehicle) is reported as “modest positive effect”. Further, the “2 h ethanol intake, Dunnett's t-test for main effect of dose” value in data set [1] (highest dose (400 mg/kg/day IP)) is “significant effect”. For the same compound, the solubility – broadly, the concentration that dissolves in the medium under given conditions – was 10 to 20 mg/mL (≈ 24.6 to 49.2 mM) in data set [2] (aqueous buffer, pH 4.5, 25° C.); 20 to 30 mg/mL (≈ 49.2 to 73.8 mM) in data set [2] (aqueous buffer, pH 6.8, 25° C.); 25 to 33 mg/mL (≈ 61.5 to 81.2 mM) in data set [2] (simulated gastric fluid, pH 1.2, 25° C.). In addition, the “inhibitory activity of ALDH2” value with ALDH2 is recorded as “devoid of inhibitory activity”.
